Source: patent US20220145303A1, “FRAGILE X MENTAL RETARDATION PROTEIN INTERFERING OLIGONUCLEOTIDES AND METHODS OF USING SAME” (Nogra Pharma Limited, priority 2019, published 2022)

Legend:
Type in all cases: cell-based, human
caspase 3 = assay: Activated caspase 3 by flow cytometry in CRC cells; settings: oligonucleotide 100 nM 36 hours, staurosporin 1 μM, FIGS. 4A, 4B
Method: Immunotools, Friesoythe, Germany) according to the manufacturer's instructions, and incubated with […] of propidium iodide (PI) for 30 min at 4° C. Cells were also transfected with either FMRP sense oligonucleotide or FMRP AS oligonucleotide (final concentration 100 nM) for 36 hours and analyzed for activated caspase 3 and caspase 8. […] Additionally, 36 hours (FIGS. 4F and 4G) or 48 hours post-transfection (FIGS. 4D and 4E), cells were pulsed with […] bromodeoxyuridine for 60 minutes, fixed in 70% cold ethanol, and stored at −20° C. for at least 3 hours. […] Fluorescence was measured using Gallios Flow Cytometer (Beckman Coulter, Life Sciences, Pasadena, Calif., USA) and analyzed using Kaluza software (Beckman Coulter). Viable cells were considered as AV^−/PI^− cells.

caspase 8 = assay: Activated caspase 8 by flow cytometry in CRC cells; settings: oligonucleotide 100 nM 36 hours, FIGS. 4A, 4B
Method: (§1) Cells were transfected with either FMRP antisense oligonucleotide (AS)(final concentration 0.5 nM and 100 nM) or FMRP sense oligonucleotide (S)(final concentration 100 nM). After 24 hours (FIGS. 3E, 3F, 3J and 3K) or 48 hours (FIG. 3H), cells were collected, washed two times in Annexin V (AV) buffer, stained with FITC-AnnexinV (final dilution 1:100; Immunotools, Friesoythe, Germany) according to the manufacturer's instructions, and incubated with […] of propidium iodide (PI) for 30 min at 4° C. Cells were also transfected with either FMRP sense oligonucleotide or FMRP AS oligonucleotide (final concentration 100 nM) for 36 hours and analyzed for activated caspase 3 and caspase 8. As positive and negative controls, cells were treated, respectively, with staurosporin (final concentration 1 μM, Sigma-Aldrich Milan, Italy) or Q-VD-OPh (a pan-caspase inhibitor; final concentration 1 μM) (R&D Systems, Inc, Minneapolis, Minn.). Additionally, 36 hours (FIGS. 4F and 4G) or 48 hours post-transfection (FIGS. 4D and 4E), cells were pulsed with […] bromodeoxyuridine for 60 minutes, fixed in 70% cold ethanol, and stored at −20° C. for at least 3 hours. […] Fluorescence was measured using Gallios Flow Cytometer (Beckman Coulter, Life Sciences, Pasadena, Calif., USA) and analyzed using Kaluza software (Beckman Coulter). […]

DLD-1 cell lines = assay: Cell cycle distribution by bromodeoxyuridine/PI flow cytometry; settings: DLD-1 48 hours (FIGS. 4D, 4E); HCT-116 36 hours (FIGS. 4F, 4G); before induction of cell death
Method: as §1

FMRP = FMRP knockdown: Western blot of FMRP after transfection with FMRP antisense or sense oligonucleotide; settings: 48 hours, AS 0.5-100 nM, S 100 nM
Method: Total proteins were extracted from mouse colonic tissues, and lysed on ice in buffer containing 10 mM HEPES [pH 7.9], 10 mM KCl, 0.1 mM EthyleneDiamineTetraacetic Acid (EDTA), 0.2 mM Ethylene Glycol-bis (β-aminoethyl ether)-N,N,N′,N′-Tetraacetic Acid (EGTA) and 0.5% Nonidet P40 supplemented with 1 mM dithiothreitol (DTT), […], […], 1 mM phenylmethylsulfonyl fluoride (PMSF), 1 mM Na3VO4, and 1 mM NaF. Lysates were clarified by centrifugation and separated on sodium dodecyl sulphate (SDS)-polyacrylamide gel electrophoresis. Blots were incubated with antibodies against: FMRP (Cell Signaling, Danvers, Mass.), followed by a secondary antibody conjugated to horseradish peroxidase (Dako, Milan, Italy). After analysis, each blot was stripped and incubated with a mouse-anti-human monoclonal β-actin antibody (Sigma-Aldrich) to ascertain equivalent loading of the lanes.
Human CRC cell lines, DLD-1 and HCT-116, were obtained from the American Type Culture Collection (ATCC, Manassas, Va.) and cultured in RPMI 1640 (DLD-1) and McCoy's 5A (HCT-116) medium, respectively. All media were supplemented with 10% fetal bovine serum, 1% penicillin/streptomycin (both from Lonza, Verviers, Belgium). The normal human colon epithelial cell line (HCEC-1ct) was obtained from EVERCYTE GmbH (Vienna, Austria) and cultured in ColoUp® medium (EVERCYTE GmbH). Cells were maintained in a 37° C., 5% CO2, fully humidified incubator. Cell line lysates were prepared and analyzed by SDS-polyacrylamide gel electrophoresis/immunoblot using methods as previously described in Example 2. For immunofluorescent staining, cell lines were fixed with 3.7% formaldehyde for 10 minutes at 4° C., permeabilized with 0.1% Triton for 10 minutes at room temperature and blocked (1% bovine serum albumin, Tween 0.1%, glycine 2%) for 1 hour at room temperature. Fixed and blocked cells were incubated with anti-FMRP monoclonal antibody (1:500, Cell Signaling, Danvers, Mass.) overnight at 4° C. After washing with PBS, secondary antibody goat anti-rabbit Alexa 488 (1:2000, A11008; Invitrogen) was applied for 1 hour at room temperature. Slides were washed with PBS, mounted using Prolong Gold® anti-fade reagent with 4′,6-diamidino-2-phenylindole (P36931; Invitrogen) and analyzed by a Leica DMI4000 B microscope with Leica application suite software (V4.6.2).
Phosphorothioate single-stranded antisense oligonucleotides complementary to human FMRP [5′-[…]-3′ (SEQ ID NO: 6)] and single-stranded sense oligonucleotides [5′-[…]-3′ (SEQ ID NO: 15)] were synthesized. CRC cell lines and HCEC-1ct cells were transfected with either FMRP antisense (AS)(final concentration 0.5-100 nM) or FMRP sense oligonucleotide (S) (final concentration100 nM) for 24 and 48 hours, using Opti-MEM medium and lipofectamine 3000 reagent (Thermo Fisher Scientific, Waltham, Mass., USA) according to the manufacturer's instructions.

Q: For “5′-TCCACCACCAGCTCCTCCAT-3′ (all phosphorothioate, sugars by position and methylation of C not given here) [FMRP antisense oligonucleotide, Phosphorothioate single-stranded antisense oligonucleotides complementary to human FMRP]”, which “percentage of activated caspase 3-positive cells” value (caspase 3) is on record?
A: did not alter

Q: And the “percentage of activated caspase 8-positive cells” value (caspase 8)?
A: did not alter

Q: What about the “relative percentage of cells in G2/M, S, or G0/G1 cell cycle phases” value (DLD-1 cell lines) of the same substance?
A: did not affect

Q: What about the FMRP expression (FMRP; DLD-1 cells, FIG. 3D) of the same substance?
A: significantly inhibited FMRP expression

Q: What about the FMRP expression (FMRP; HCEC-1ct cells, FIG. 3I) of the same substance?
A: significantly inhibited FMRP expression

Q: And the FMRP expression (FMRP; HCT-116 cells, FIG. 3G)?
A: significantly inhibited FMRP expression
